The text below walks through data of US20150344485A1, “BICYCLIC PYRIMIDONE COMPOUNDS AS INHIBITORS OF LP-PLA2” (GLAXOSMITHKLINE INTELLECTUAL PROPERTY DEVELOPMENT LIMITED, priority 2013, published 2015).

Molecules are shown by their SMILES. Like-named read-outs stand apart in the source and are kept apart here.

In test [1] the target is T1, recombinant human Lp-PLA2 (Homo sapiens, UniProt Q13093).
T1 sequence (Q13093 22-441): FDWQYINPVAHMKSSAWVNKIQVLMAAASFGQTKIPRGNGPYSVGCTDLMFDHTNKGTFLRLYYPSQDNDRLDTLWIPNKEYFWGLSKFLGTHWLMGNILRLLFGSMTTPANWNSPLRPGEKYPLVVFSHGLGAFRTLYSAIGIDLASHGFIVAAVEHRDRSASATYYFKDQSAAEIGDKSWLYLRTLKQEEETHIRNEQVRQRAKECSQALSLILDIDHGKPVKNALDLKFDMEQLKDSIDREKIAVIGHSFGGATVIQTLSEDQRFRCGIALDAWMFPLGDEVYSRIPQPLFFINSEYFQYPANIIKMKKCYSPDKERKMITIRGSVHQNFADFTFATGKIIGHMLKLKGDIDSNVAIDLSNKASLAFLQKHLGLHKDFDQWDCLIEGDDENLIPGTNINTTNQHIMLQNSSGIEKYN
Description: Recombinant human Lp-PLA2 assay (rhLp-PLA2, PED6 assay). It is filed as biochemical. From the text:
(1) Recombinant Human Lp-PLA2 Assay (rhLp-PLA2) (Also Referred to as “PED6” Assay)
N-((6-(2,4-dinitrophenyl)amino)-hexanoyl)-2-(4,4-difluoro-5,7-dimethyl-4-bora-3a,4a-diaza-s-indacene-3-pentanoyl)-1-hexadecanoyl-sn-glycero-3-phosphoethanolamine, triethylammonium salt (PED6) is a commercially available fluorescently-labeled phospholipid, which is commercially available from Invitrogene and Molecular Probes. There is a quenching para-nitro phenyl (PNP) group in the sn3 position and a Bodipy fluorescein (FL) group in the sn2 position. Upon cleavage with Lp-PLA2, the Bodipy FL group is liberated and then may result in an increase in fluorescence. Inhibitors of Lp-PLA2 therefore prevent this cleavage and no fluorescent increase is observed.
The PED6 assay was run as an unquenched 10 μL assay. The source plate containing the compounds to be tested was prepared by making 1:3 (by volume) serial dilution of the compounds within DMSO on 384-well microplate. Then, 0.01 μL of the compounds on compound source plate were transferred into 384 well Greiner 784076 (black) plates using ECHO liquid dispenser. 5 μL of recombinant human Lp-PLA2 enzyme (4 nM (or 110 pM) rhLp-PLA2 in assay buffer of 50 mM HEPES, pH 7.4, 150 mM NaCl, 1 mM CHAPS) was added to each well of the plate. Plates were centrifuged for 10 sec at 500 rpm. After 30 minutes preincubation, 5 μL of substrate (4 μM (or 5 μM) PED6 [from 5 mM DMSO stock] in assay buffer of 50 mM HEPES, pH 7.4, 150 mM NaCl, 1 mM CHAPS) was added to 384 well Greiner 784076 (black) plates. Plates were centrifuged for 10 sec at 500 rpm. The plate was covered to protect it from light and incubated for 20 min at room temperature. The plates were read for fluorescence intensity at ex: 480/em: 540 using ViewLux microplate imager for Envision spectrofluroimeters. pIC50 data, curve and QC analysis was conducted by using XL fit module in Excel.

In a further test the target is T2, Lp-PLA2 in human plasma (Homo sapiens, UniProt Q13093).
T2 construct: from tissue; host or cells: pooled human plasma
T2 sequence (Q13093 22-441): T1 sequence (Q13093 22-441)
Description: Lp-PLA2 human plasma assay (Thio-PAF assay). It is filed as biochemical. As to conditions: pooled human plasma; read-out: pIC50 values in the thio-PAF assay (converted). From the text: The human plasma assay utilizes a thioester analog of PAF (phosphatidylcholine), where hydrolysis yields to the formation of a phospholipid containing a free thiol group. The amount of thiol is quantitated continuously by reacting with CPM (7-diethylamino-3-(4′-maleimidylphenyl)-4-methylcoumarin), a maleimide which increases in fluoresence after Michael addition of thiols. This assay may detect the activity of Lp-PLA2 in human plasma, as determined by specific inhibition by Lp-PLA2 inhibitors.
The thio-PAF assay was run as a quenched 15 μL assay. Compounds source plate was prepared by making 1:3 (by volume) serial dilution of the compounds into pure DMSO on 384-well microplate. 0.01 μL of compounds on compound source plate were transferred to 384 well Greiner 784076 (black) low-volume plates by ECHO liquid dispenser. 8 μL pooled human plasma, which was previously aliquoted and frozen, was added. Plates were centrifuged for 10 sec at 500 rpm. After 30 minutes preincubation, 2 μL of substrate solution comprising 2.5 mM 2-thio-PAF [from ethanol stock], 32 μM CPM [from a DMSO stock] and 3.2 mM NEM (N-ethylmaleimide) [made fresh daily in DMSO] in assay buffer of 50 mM HEPES, pH 7.4, 150 mM NaCl, 1 mM CHAPS was added to 384 well Greiner 784076 (black) low-volume plates by BRAVO liquid handling station. After 2 mins, reaction was quenched with 5 μL of 5% aqueous trifluoroacetic acid (TFA). Plates were covered to protect from light and incubated for 40 min at room temperature. Plates were read at ex: 380/em: 485 using-Envision microplate reader. pIC50 data, curve and QC analysis was conducted by using XLFit module in Excel.

Where [2] appears, read: read-out: pIC50 values in the recombinant human Lp-PLA2 assay (converted).
Where [3] appears, read: read-out: rhLp-PLA2 (PED6 assay) (pIC50) (converted).

Consider `CN1c2cc(OCc3ccc(Oc4ccnc(C(F)(F)F)c4)c(F)c3)nc(=O)n2CCC1(C)C` [E89, 8-((3-fluoro-4-((2-(trifluoromethyl)pyridin-4-yl)oxy)benzyl)oxy)-1,2,2-trimethyl-3,4-dihydro-1H-pyrimido[1,6-a]pyrimidin-6(2H)-one], for which the figures for the IC50 (in test [1] (setting [2]); at Lp-PLA2 in human plasma) were at most 1 nM and at most 10 nM, respectively.

For `CN1c2cc(OCc3ccc(F)cc3)nc(=O)n2CCC1(C)C` [E135, 8-((4-fluorobenzyl)oxy)-1,2,2-trimethyl-3,4-dihydro-1H-pyrimido[1,6-a]pyrimidin-6(2H)-one], the IC50 in test [1] (setting [2]) is at most 1 nM; at Lp-PLA2 in human plasma it was at most 10 nM.

For `C[C@@H]1CCn2c(cc(OCc3cc(F)c(Oc4cccc(F)c4)c(F)c3)nc2=O)N1C` [E103, (R)-8-((3,5-difluoro-4-(3-fluorophenoxy)benzyl)oxy)-1,2-dimethyl-3,4-dihydro-1H-pyrimido[1,6-a]pyrimidin-6(2H)-one], the IC50 in test [1] (setting [2]) was at most 1 nM; at Lp-PLA2 in human plasma, at most 100 nM.

Regarding `CN1c2cc(OCc3cccc(C#N)c3)nc(=O)n2CCC1(C)C` [E133, 3-(((1,2,2-trimethyl-6-oxo-2,3,4,6-tetrahydro-1H-pyrimido[1,6-a]pyrimidin-8-yl)oxy)methyl)benzonitrile], the IC50 in test [1] (setting [2]) is at most 1 nM; on Lp-PLA2 in human plasma it was at most 10 nM.

For `C[C@H]1CCn2c(cc(OCc3ccc(Oc4ccc(C(F)(F)F)c(F)c4)cc3)nc2=O)N1C` [E105, (S)-8-((4-(3-fluoro-4-(trifluoromethyl)phenoxy)benzyl)oxy)-1,2-dimethyl-3,4-dihydro-1H-pyrimido[1,6-a]pyrimidin-6(2H)-one], the figures for the IC50 (in test [1] (setting [2]); at Lp-PLA2 in human plasma) were at most 1 nM and at most 100 nM, respectively.

Turning to `C[C@@H]1CCn2c(cc(OCc3cc(F)c(Oc4cccc(C(F)(F)F)c4)c(F)c3)nc2=O)N1C` [E77, (R)-8-((3,5-difluoro-4-(3-(trifluoromethyl)phenoxy)benzyl)oxy)-1,2-dimethyl-3,4-dihydro-1H-pyrimido[1,6-a]pyrimidin-6(2H)-one], the values for the IC50 (in test [1] (setting [2]); at Lp-PLA2 in human plasma) were at most 1 nM and at most 10 nM, respectively.

Take `C[C@@H]1CCn2c(cc(OCc3ccc(Oc4ccc(C(F)(F)F)nc4)c(C#N)c3)nc2=O)N1C` [E115, (R)-5-(((1,2-dimethyl-6-oxo-2,3,4,6-tetrahydro-1H-pyrimido[1,6-a]pyrimidin-8-yl)oxy)methyl)-2-((6-(trifluoromethyl)pyridin-3-yl)oxy)benzonitrile]: the IC50 is at most 1 nM in test [1] (setting [2]) and at most 10 nM on Lp-PLA2 in human plasma.

Consider `C[C@@H]1CCn2c(cc(OCc3ccc(Oc4ccc(F)c(F)c4)c(F)c3)nc2=O)N1C` [E80, (R)-8-((4-(3,4-difluorophenoxy)-3-fluorobenzyl)oxy)-1,2-dimethyl-3,4-dihydro-1H-pyrimido[1,6-a]pyrimidin-6(2H)-one], for which the figures for the IC50 (in test [1] (setting [2]); at Lp-PLA2 in human plasma) were at most 1 nM and at most 100 nM, respectively.

For `C[C@H]1CCn2c(cc(OCc3ccc(Oc4cccc(F)c4)c(C#N)c3)nc2=O)N1C` [E92, (S)-5-(((1,2-dimethyl-6-oxo-2,3,4,6-tetrahydro-1H-pyrimido[1,6-a]pyrimidin-8-yl)oxy)methyl)-2-(3-fluorophenoxy)benzonitrile], the IC50 in test [1] (setting [2]) is at most 1 nM; on Lp-PLA2 in human plasma it was at most 10 nM.

Regarding `C[C@H]1CCn2c(cc(OCc3cc(F)c(Oc4cncc(C(F)(F)F)c4)c(F)c3)nc2=O)N1C` [E150, (S)-8-((3,5-difluoro-4-((5-(trifluoromethyl)pyridin-3-yl)oxy)benzyl)oxy)-1,2-dimethyl-3,4-dihydro-1H-pyrimido[1,6-a]pyrimidin-6(2H)-one], the values for the IC50 (in test [1] (setting [2]); at Lp-PLA2 in human plasma) were at most 1 nM and at most 10 nM, respectively.

`CN1c2cc(OCc3ccc(Oc4ccc(F)c(C(F)(F)F)c4)c(C#N)c3)nc(=O)n2CCC1(C)C` [E116, 2-(4-fluoro-3-(trifluoromethyl)phenoxy)-5-(((1,2,2-trimethyl-6-oxo-2,3,4,6-tetrahydro-1H-pyrimido[1,6-a]pyrimidin-8-yl)oxy)methyl)benzonitrile]: the IC50 was at most 1 nM in test [1] (setting [2]) and at most 10 nM on Lp-PLA2 in human plasma.

On to `C[C@H]1CCn2c(cc(OCc3ccc(Oc4ccc(F)cc4)c(C#N)c3)nc2=O)N1C` [E126, (S)-5-(((1,2-dimethyl-6-oxo-2,3,4,6-tetrahydro-1H-pyrimido[1,6-a]pyrimidin-8-yl)oxy)methyl)-2-(4-fluorophenoxyl)benzonitrile], for which the IC50 in test [1] (setting [2]) is at most 1 nM; on Lp-PLA2 in human plasma it was at most 100 nM.

Regarding `CCN1c2cc(OCc3cc(F)c(F)c(F)c3)nc(=O)n2CC[C@@H]1C` [E56, (S)-1-ethyl-2-methyl-8-((3,4,5-trifluorobenzyl)oxy)-3,4-dihydro-1H-pyrimido[1,6-a]pyrimidin-6(2H)-one], the IC50 is at most 1 nM in test [1] (setting [2]), 0.398 nM in test [1] (setting [3]) and at most 10 nM at Lp-PLA2 in human plasma.

With `C[C@H]1CCn2c(cc(OCc3ccc(Oc4ccc(C(F)(F)F)cc4)c(F)c3)nc2=O)N1C` [E93, (S)-8-((3-fluoro-4-(4-(trifluoromethyl)phenoxy)benzyl)oxy)-1,2-dimethyl-3,4-dihydro-1H-pyrimido[1,6-a]pyrimidin-6(2H)-one], the IC50 is at most 1 nM in test [1] (setting [2]) and at most 10 nM at Lp-PLA2 in human plasma.

With `C[C@@H]1CCn2c(cc(OCc3ccc(Oc4cccc(C(F)(F)F)c4)c(F)c3)nc2=O)N1C` [E120, (R)-8-((3-fluoro-4-(3-(trifluoromethyl)phenoxy)benzyl)oxy)-1,2-dimethyl-3,4-dihydro-1H-pyrimido[1,6-a]pyrimidin-6(2H)-one], the IC50 in test [1] (setting [2]) is at most 1 nM; on Lp-PLA2 in human plasma, at most 100 nM.

For `C[C@@H]1CCn2c(cc(OCc3ccc(Oc4cncc(C(F)(F)F)c4)c(F)c3)nc2=O)N1C` [E149, (R)-8-((3-fluoro-4-((5-(trifluoromethyl)pyridin-3-yl)oxy)benzyl)oxy)-1,2-dimethyl-3,4-dihydro-1H-pyrimido[1,6-a]pyrimidin-6(2H)-one], the IC50 in test [1] (setting [2]) was at most 1 nM; at Lp-PLA2 in human plasma, at most 10 nM.

For `CC(C)Oc1c(F)cc(COc2cc3n(c(=O)n2)CC[C@@H](C)N3C)cc1F` [E82, (R)-8-((3,5-difluoro-4-isopropoxybenzyl)oxy)-1,2-dimethyl-3,4-dihydro-1H-pyrimido[1,6-a]pyrimidin-6(2H)-one], the IC50 in test [1] (setting [2]) was at most 1 nM; in test [1] (setting [3]), 0.126 nM.

Take `[2H]C([2H])(Oc1cc2n(c(=O)n1)CC[C@@H](C)N2C)c1cc(F)c(F)cc1F` [E23, (R)-8-(dideutero(2,4,5-trifluorophenyl)methoxy)-1,2-dimethyl-3,4-dihydro-1H-pyrimido[1,6-a]pyrimidin-6(2H)-one]: the IC50 in test [1] (setting [3]) was 12.6 nM.

Turning to `CC(C)Oc1ccc(COc2cc3n(c(=O)n2)CC[C@@H](C)N3C)cc1F` [E51, (R)-8-((3-fluoro-4-isopropoxybenzyl)oxy)-1,2-dimethyl-3,4-dihydro-1H-pyrimido[1,6-a]pyrimidin-6(2H)-one], the IC50 in test [1] (setting [3]) is 50.1 nM.
